Patent US9518060B2, “Substituted pyrrolo[3,4-c]pyrazoles as PKC kinase inhibitors” (PFIZER INC., priority 2007, dated 2016)
pKi: −log10 of the molar value.

Molecular target: Protein Kinase C beta 2 (PKCβII) (Homo sapiens (Human), UniProt P05771)
Assay: PKCβII coupled spectrophotometric kinase assay (PK/LDH, NADH absorbance at 340 nm)
Format: biochemical
Settings: apparent Ki, ATP competitive inhibition model (Morrison equation); 0.1 mM ATP, 5 nM PKC, 30° C.; read-out: Ki app
Outline: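 PK/LDH-coupled ADP detection (NADH loss at 340 nm), 20 min at 30° C, pH 7.4; 5 nM PKCβII, 0.15 mM pseudosubstrate peptide, 0.1 mM ATP, with CaCl2, PS and PMA activators, 7.5% DMSO. Apparent Ki from initial velocities fitted to ATP-competitive Morrison model over 10,000–0.169 nM inhibitor.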

Protein Kinase C beta 2 (PKCβII), sequence (P05771 other isoform, or with tags, fused parts or gaps): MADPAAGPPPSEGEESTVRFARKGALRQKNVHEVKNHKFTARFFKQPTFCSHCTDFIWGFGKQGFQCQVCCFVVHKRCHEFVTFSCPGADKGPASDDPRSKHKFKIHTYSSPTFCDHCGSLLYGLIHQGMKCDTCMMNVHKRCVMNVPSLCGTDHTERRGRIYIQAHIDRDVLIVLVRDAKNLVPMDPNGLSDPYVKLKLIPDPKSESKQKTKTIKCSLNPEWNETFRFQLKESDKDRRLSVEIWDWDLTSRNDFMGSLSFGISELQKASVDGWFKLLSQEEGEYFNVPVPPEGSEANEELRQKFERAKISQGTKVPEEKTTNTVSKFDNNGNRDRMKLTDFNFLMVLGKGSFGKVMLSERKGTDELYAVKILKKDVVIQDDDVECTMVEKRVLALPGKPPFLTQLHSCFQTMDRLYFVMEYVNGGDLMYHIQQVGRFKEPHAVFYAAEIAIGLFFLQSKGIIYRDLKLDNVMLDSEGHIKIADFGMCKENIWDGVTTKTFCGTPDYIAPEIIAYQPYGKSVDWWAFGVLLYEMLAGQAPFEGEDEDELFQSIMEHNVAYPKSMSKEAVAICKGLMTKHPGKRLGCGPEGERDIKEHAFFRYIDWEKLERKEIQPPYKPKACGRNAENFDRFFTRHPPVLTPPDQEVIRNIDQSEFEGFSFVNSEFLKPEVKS

SMILES	pKi
COCCCOc1ncc(F)c(Nc2n[nH]c3c2CN(C(=O)N2CC(C)(C)N(C)C[C@@H]2C)C3(C)C)n1 [Example K9, N-[5-fluoro-2-(3-methoxypropoxy)pyrimidin-4-yl]-6,6-dimethyl-5-{[(2S)-2,4,5,5-tetramethylpiperazin-1-yl]carbonyl}-1,4,5,6-tetrahydropyrrolo[3,4-c]pyrazol-3-amine]	7.89
COCCCOc1ncc(F)c(Nc2n[nH]c3c2CN(C(=O)N2C[C@@H](C)N(C)C[C@@H]2C)C3(C)C)n1 [Example K10, N-[5-fluoro-2-(3-methoxypropoxy)pyrimidin-4-yl]-6,6-dimethyl-5-{[(2S,5R)-2,4,5-trimethylpiperazin-1-yl]carbonyl}-1,4,5,6-tetrahydropyrrolo[3,4-c]pyrazol-3-amine]	7.55
COCCOc1ncc(F)c(Nc2n[nH]c3c2CN(C(=O)N2CC(C)(C)N(C)C[C@@H]2C)C3(C)C)n1 [Example K11, N-[5-fluoro-2-(2-methoxyethoxy)pyrimidin-4-yl]-6,6-dimethyl-5-{[(2S)-2,4,5,5-tetramethylpiperazin-1-yl]carbonyl}-1,4,5,6-tetrahydropyrrolo[3,4-c]pyrazol-3-amine]	7.37
COCCOc1ncc(F)c(Nc2n[nH]c3c2CN(C(=O)N2C[C@@H](C)N(C)C[C@@H]2C)C3(C)C)n1 [Example K12, N-[5-fluoro-2-(2-methoxyethoxy)pyrimidin-4-yl]-6,6-dimethyl-5-{[(2S,5R)-2,4,5-trimethylpiperazin-1-yl]carbonyl}-1,4,5,6-tetrahydropyrrolo[3,4-c]pyrazol-3-amine]	7.82
CCOc1ncc(F)c(Nc2n[nH]c3c2CN(C(=O)N2C[C@H](C)N(C)C[C@@H]2C)C3(C)C)n1 [Example K13, 2(S),5(S)-{[dimethyl-4-methylpiperazin-1-yl]carbonyl}-N-(5-fluoro-2-ethoxypyrimidin-4-yl)-6,6-dimethyl-1,4,5,6-tetrahydropyrrolo[3,4-c]pyrazol-3-amine]	7.58
CCOc1ncc(F)c(Nc2n[nH]c3c2CN(C(=O)N2CCN4CCC[C@@H]4C2)C3(C)C)n1 [Example K14, [3-(2-Ethoxy-5-fluoro-pyrimidin-4yl-amino)-6,6-dimethyl-4,6-dihydro-1H-pyrrolo[3,4-c]pyrazol-5-yl]-(R)-hexahydro-pyrrolo[1,2-a]pyrazin-2-yl-methanone]	7.14
CCOc1ncc(F)c(Nc2n[nH]c3c2CN(C(=O)N2C[C@]4(C)CCCN4C[C@@H]2C)C3(C)C)n1 [Example K15, 5-{[(3S,8aS)-3,8a-dimethylhexahydropyrrolo[1,2-a]pyrazin-2(1H)-yl]carbonyl}-N-(2-ethoxy-5-fluoropyrimidin-4-yl)-6,6-dimethyl-1,4,5,6-tetrahydropyrrolo[3,4-c]pyrazol-3-amine]	7.95
CCOc1ncc(F)c(Nc2n[nH]c3c2CN(C(=O)N2CCN(C)[C@H](C)C2)C3(C)C)n1 [Example K17, 5-{[(3R)-3,4-dimethylpiperazin-1-yl]carbonyl}-N-(2-ethoxy-5-fluoropyrimidin-4-yl)-6,6-dimethyl-1,4,5,6-tetrahydropyrrolo[3,4-c]pyrazol-3-amine]	7.35
CCOc1ncc(F)c(Nc2n[nH]c3c2CN(C(=O)N2C[C@@H](C)N(CCC(F)(F)F)C[C@@H]2C)C3(C)C)n1 [Example K18, 5-{[(2S,5R)-2,5-dimethyl-4-(3,3,3-trifluoropropyl)piperazin-1-yl]carbonyl}-N-(2-ethoxy-5-fluoropyrimidin-4-yl)-6,6-dimethyl-1,4,5,6-tetrahydropyrrolo[3,4-c]pyrazol-3-amine]	7.60
CCOc1ncc(F)c(Nc2n[nH]c3c2CN(C(=O)N2C[C@@H](C)N(CC4CCOCC4)C[C@@H]2C)C3(C)C)n1 [Example K19, 5-{[(2S,5R)-2,5-dimethyl-4-(tetrahydro-2H-pyran-4-ylmethyl)piperazin-1-yl]carbonyl}-N-(2-ethoxy-5-fluoropyrimidin-4-yl)-6,6-dimethyl-1,4,5,6-tetrahydropyrrolo[3,4-c]pyrazol-3-amine]	> 8.00
